The values that follow come from PubChem BioAssay (NCI).

Common to all, as to experiment: NCI anticancer screen, dose series, 48 h
Assay [1] deals with ACHN renal.
For assay [2], the system named is CCRF-CEM leukemia.
In assay [3] the test system is HL-60(TB) leukemia.
The subject of assay [4] is RXF 393 renal.
The subject of assay [5] is UACC-257 melanoma.
The test system of assay [6] is UACC-62 melanoma.
Assay [7] relates to U251 CNS.
The test system of assay [8] is HCT-15 colon.
Assay [9] relates to COLO 205 colon.
In assay [10] the test system is SF-295 CNS.

Molecules are shown by their SMILES. “And” between values parts separate entries of the source, which are not always exact repeats. Equal entries are not always repeated.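 48-hour exposure; five concentrations; linearly interpolated endpoints. GI50: concentration for 50% inhibition of growth. Definition used: TGI = concentration required for complete inhibition of growth.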 Bounds are passed on as bounds.

In the case of `O=C(N1CCC(CN=c2cc3n(-c4ccc(Cl)cc4)c4ccccc4nc-3cc2Nc2ccc(Cl)cc2)CC1)N1CC1`, the GI50 in assay [1] was 1.63 µM; in assay [2], 0.253 µM; in assay [3], 1.5 µM; in [4], 0.369 µM; in [5], 0.605 µM; in [6], 1.92 µM. Moreover, the values for the GI50 in [7] and in assay [8] were 1.23 µM and 0.512 µM, respectively. For the same compound, the TGI in [1] stood at 3.21 µM; in assay [2], 1.15 µM; in [3], 3.64 µM; in assay [4], 1.29 µM; in assay [5] it was 1.89 µM; in assay [6], 3.47 µM. Also, the TGI in [7] turned out to be 2.48 µM; in [8] it was 1.87 µM.
For `CCOc1ccc(N=Nc2ccc3oc(=O)c(/C(C)=N\NC(=O)CC(=O)Nc4ccc(Cl)cc4)cc3c2)cc1`, the TGI was 97.6 µM in assay [1]; 11.4 µM in assay [2]; 29.6 µM in assay [4]; > 100 µM in assay [9]; 34.3 µM in [10]; 28.9 µM in assay [6]. Further, the values for the TGI in [7] and in [8] were 34 µM and 26.4 µM, respectively.
Regarding `CCOC(=O)C1(C(=O)OCC)CSC1`, the TGI in assay [1], in [2], in [4], in [9], in [5] and in [10] was > 100 µM in each case. Besides, the TGI in [7] and in [8] was > 100 µM each time.
On to `CCSc1nc(N2CCCCC2)c2cn[nH]c2n1`, for which the GI50 in [1] was 41.2 µM; in [2], 34.7 µM; in assay [3], 27.4 µM; in [4] it was 24.5 µM; in assay [9], 21.3 µM; in [5] it was 58.7 µM. The GI50 was 48.2 µM in assay [10], 18.8 µM in [6], 88.3 µM in assay [7] and > 100 µM in [8]. Besides, the TGI in assay [1] was > 100 µM; in assay [2], > 100 µM; in assay [3], > 100 µM; in assay [4], 92.4 µM; in assay [9], 56.8 µM; in assay [5] it was > 100 µM. For the same compound, the TGI in [10] was > 100 µM; in assay [6], 47.1 µM; in assay [7], > 100 µM; in assay [8], > 100 µM.
In the case of `O=C(O)/C=C/c1cnc[nH]1`, the GI50 in [2] was > 500 µM; in [3] it was > 500 µM; in assay [8], 284 µM and > 500 µM. Further, the TGI in assay [2], in assay [3], in assay [4], in assay [9], in assay [5] and in [10] was > 500 µM in each case. The TGI in assay [6], in [7] and in [8] was > 500 µM throughout.
